Results reported in patent US10174015B2, “Substituted heterocyclic derivative, preparation method and use thereof” (Xiamen University, priority 2014, dated 2019).
Read-outs that look alike come from different tables or passages of the source.

Experiments:
[1] = Stability assays at acidic and basic conditions; type: physicochemical
Procedure: The sample containing the compound to be tested was then incubated in a constant temperature shaker at 37° C. At different time points (0 min, 10 min, 30 min, 1 h, 2 h, 4 h, 6 h, 12 h, 24 h), 50 μL sample was taken and added to 150 μL precooled methanol (containing the internal standard E8, 1 nmol/sample), wherein three parallel samples were prepared for each time point. The samples were then vertically mixed well, and transferred to a sample vial. LC-MS/MS was used to measure the peak area at different time points, Analyst® version 1.4.1. software was used to analyze chromatographic peak, and the content of the target compound was calculated based on the standard curve.

zebrafish embryos = type: in vivo; conditions: for Death number (72 h): n = 30; for observation of zebrafish embryo development: 48 h; for Body length (72 h) / Hatching number (72 h) / Heartbeat (72 h) / Unhatching number (72 h) / hatching rate: zebrafish, in vivo, 72 h
Procedure: By the same method described above, zebrafish fertilized eggs were cultured. 7 Groups were set for each test compound, including 5 experimental groups relating to the test compound at different concentrations (solutions containing the test compound at different concentrations were prepared by using zebrafish embryo culture medium, wherein the concentrations were 100 mg/L, 10 mg/L, 1 mg/L, 0.1 mg/L, 0.01 mg/L), 1 solvent control group (DMSO) and 1 blank control group. The fertilized eggs were placed and cultured in a 28.5° C. incubator, a certain humidity was ensured in the culture environment. Culture medium containing a test compound was prepared, and the culture medium was added to a 96-well plate in advance, and each fertilized egg (by reference to the experimental method in OECD No. 212 document, fertilized eggs, which developed normally within 24 h after fertilization, were selected and subjected to exposure. Transparent fish eggs visible to naked eye were normally fertilized, while white fish eggs were dead and discarded. After the selection, the normally fertilized eggs had begun to divide as observed under microscope) was then independently placed in a different well, and cultured in the culture medium containing a test compound at a different concentration. Embryo development status at different stages were observed and photographed with invert microscope, including:
I. Morphological observation: the developmental states of fertilized eggs (yolk being coagulated or not, eye spot, pericardial sac being edematous or not, bloodstream being existing or not, tail development status, and the like) were observed and photographed at 48 h, 72 h, and 96 h;
II. Hatching number and death number were counted at 72 h after fertilization, and hatching rate and mortality were calculated;
III. Body length of the hatched young fishes at 72 h was measured (measured after photographing with invert microscope); […]
V. Heartbeat of young fishes (times/min) was recorded at 72 h and 96 h after fertilization (Recording method: heartbeat of young fishes could be clearly observed under microscope, and the number of heartbeats was recorded for 30 s).

SNI neuropathic pain = assay: Neuropathic pain mouse model induced by spared nerve injury (SNI); type: in vivo, C57BL/6 mice; conditions: SNI mice; for effect compared to positive control drug gabapentin: 10 mg/kg i.p. vs gabapentin 100 mg/kg, 1 h after administration
Procedure: In the Experimental example, compounds to be evaluated or compounds to be tested or test compounds used are the Compounds 1-46 prepared in the Examples according to the invention. In the Experimental example, all the agents for injection, including compounds to be evaluated or compounds to be tested or test compounds, and positive control drug, were dissolved in a mixed solvent of PEG400:Tween 80:normal saline (at a volume ratio of 5:5:90), at a concentration of 5 mg/mL.
Neuropathic pain mouse model induced by spared nerve injury (SNI) is a common animal model for studying neuropathic pain medically. The invention uses the model to evaluate the therapeutic effects of the compounds on neuropathic pain, wherein the model can represent peripheral neuropathic pain including, but not limited to post-herpetic neuralgia, pain caused by diabetic perineuropathy, neurothlipsis and exudation caused by tumor, lumbar surgery failure syndrome, neuropathic pain caused by lumbar disc protrusion, postpartum neuralgia, trigeminal neuralgia, chemotherapy-induced multiple neuropathic pain, post-radiotherapy plexopathy, and radicular neuralgia.
C57BL/6 mice (purchased from Shanghai SLAC Laboratory Animal Co., Ltd) were anesthetized by intraperitoneal injection with pentobarbital sodium (40 mg/kg), and skin from knee joint to gluteal region was subjected to skin preparation and disinfection. After the mice were fixed, the knee joint part was cut about 1 cm longitudinally with bistoury, and muscle tissues were separated by blunt dissection to expose sciatic nerve. The tibial and common peroneal nerve branches of sciatic nerve stem were cut off carefully, and the cut was then stitched up. The mice was placed in a clean observation cage. In the sham-operation group, only sciatic nerve was exposed without cutting the tibial and common peroneal nerve branches. From the day before the experiment to 24 h after the operation, the plantar edges of the mice were stimulated everyday by […] (Ugo Basile Company (Italy), Product ID: 37450), and data was collected automatically to obtain the threshold value of mice to mechanical stimulation. […] The positive control drug gabapentin was administered at a dose of 100 mg/kg. All the agents to be injected were dissolved in a mixed solvent of PEG400:Tween 80:normal saline (at a volume ratio of 5:5:90), at a concentration of 5 mg/mL. By comparing the threshold values (the acting force of when the mouse retracting the paw) at different administration time in different administration groups, the compound was evaluated for its analgesic effect on neuropathic pain.

[2] = PBS pH 5.0, 37° C., read-out: Half-life pH 5.0
[3] = PBS pH 7.4, 37° C., read-out: Half-life pH 7.4
[4] = 10 mg/kg i.p. (gabapentin 100 mg/kg), 4 h after administration
[5] = 10 mg/kg intraperitoneal, 1 h and 4 h after administration (FIGS. 1 and 2)

SMILES	half-life at 1 μM [1, 2] [min]	half-life at 1 μM [1, 3] [min]	Death number (72 h) (zebrafish embryos; 0.01 mg/L)	Death number (72 h) (zebrafish embryos; 0.1 mg/L)	Death number (72 h) (zebrafish embryos; 1 mg/L)	Death number (72 h) (zebrafish embryos; 10 mg/L)	observation of zebrafish embryo development (zebrafish embryos; 100 mg/L)	Death number (72 h) (zebrafish embryos; 100 mg/L)	Body length (72 h) (zebrafish embryos; 0.01 mg/L) [mm]	Hatching number (72 h) (zebrafish embryos; 0.01 mg/L)	Heartbeat (72 h) (zebrafish embryos; 0.01 mg/L) [per min]	Unhatching number (72 h) (zebrafish embryos; 0.01 mg/L)	Body length (72 h) (zebrafish embryos; 0.1 mg/L) [mm]	Hatching number (72 h) (zebrafish embryos; 0.1 mg/L)	Heartbeat (72 h) (zebrafish embryos; 0.1 mg/L) [per min]	Unhatching number (72 h) (zebrafish embryos; 0.1 mg/L)	Body length (72 h) (zebrafish embryos; 1 mg/L) [mm]	Hatching number (72 h) (zebrafish embryos; 1 mg/L)	Heartbeat (72 h) (zebrafish embryos; 1 mg/L) [per min]	Unhatching number (72 h) (zebrafish embryos; 1 mg/L)	other results
O=C(CCCCCc1ccccc1)N1CCOC1=O [Compound 2, Phenylhexanoyl Oxazolidinone]	> 1440	> 1440	0	0	0	0	no zebrafish embryos died, but phenomena such as pericardial cyst, no heartbeat, no bloodstream, no tail development and the like occurred in embryos	30	3.90 ± 0.93	30	124 ± 1.67	0	4.08 ± 0.09	30	123 ± 2.45	0	3.92 ± 0.10	30	123 ± 3.03	0	Body length (72 h) (zebrafish embryos; 10 mg/L): 3.78 ± 0.05 mm; Hatching number (72 h) (zebrafish embryos; 10 mg/L): 28; Heartbeat (72 h) (zebrafish embryos; 10 mg/L): 117 ± 3.90 per min; Unhatching number (72 h) (zebrafish embryos; 10 mg/L): 2; hatching rate (zebrafish embryos; 10 mg/L): 93.3%; Hatching number (72 h) (zebrafish embryos; 100 mg/L): 0; Unhatching number (72 h) (zebrafish embryos; 100 mg/L): 30; effect of inhibiting central neuropathic pain (SNI neuropathic pain; [4]): retained a relatively strong effect of inhibiting central neuropathic pain; effect compared to positive control drug gabapentin (SNI neuropathic pain): not as effective as the control drug; analgesic effect (SNI neuropathic pain; 10 mg/kg i.p., 10 h after administration (FIG. 3)): still had a sustained analgesic effect; effect of inhibiting central neuropathic pain (SNI neuropathic pain; [5]): significant effects of inhibiting central neuropathic pain
O=C(CCCCCc1cccc(Cl)c1)N1CCOC1=O [Compound 9, 3-Chlorophenylhexanoyl Oxazolidinone]	> 1440	> 1440	0	0	0	0	no zebrafish embryos died, but phenomena such as pericardial cyst, no heartbeat, no bloodstream, no tail development and the like occurred in embryos	30	4.01 ± 0.24	30	124 ± 0.27	0	4.03 ± 0.62	30	124 ± 1.17	0	4.01 ± 0.26	30	124 ± 1.08	0	Body length (72 h) (zebrafish embryos; 10 mg/L): 3.82 ± 0.44 mm; Hatching number (72 h) (zebrafish embryos; 10 mg/L): 28; Heartbeat (72 h) (zebrafish embryos; 10 mg/L): 117 ± 2.24 per min; Unhatching number (72 h) (zebrafish embryos; 10 mg/L): 2; hatching rate (zebrafish embryos; 10 mg/L): 93.3%; Hatching number (72 h) (zebrafish embryos; 100 mg/L): 0; Unhatching number (72 h) (zebrafish embryos; 100 mg/L): 30; effect of inhibiting central neuropathic pain (SNI neuropathic pain; [4]): retained a relatively strong effect of inhibiting central neuropathic pain; effect compared to positive control drug gabapentin (SNI neuropathic pain): not as effective as the control drug; effect of inhibiting central neuropathic pain (SNI neuropathic pain; [5]): significant effects of inhibiting central neuropathic pain
